The subject of assay [1] is mouse hippocampus CA1 region. As to the kind of experiment: Long-term potentiation of synaptic transmission (LTP), fEPSP in hippocampus slice. The conditions noted are these: 100 pM in artificial cerebrospinal fluid. It counts as cell-based. The procedure: (§1) The brain of a male mouse C57BL/6 (10-12 weeks old) was sagitally sectioned, then a coronal section brain slice (400 μm) including a hippocampus CA1 region was prepared. The hippocampus slice was recovered in an artificial cerebrospinal fluid (126 mM NaCl, 5 mM KCl, 26 mM NaHCO3, 1.3 mM MgSO4-7H2O, 1.26 mM KH2PO4, 2.4 mM CaCl2-2H2O, 10 mM glucose) saturated by a 95% O2/5% CO2 gas at 34° C. for 2 hours. The hippocampus slice was transferred to a measurement chamber, and ST101 (100 pM), SAK1 (100 pM), SAK3 (100 pM) were added to the artificial cerebrospinal fluid, and perfused. Then, the Schaffer branch to be input to the hippocampus CA1 region and the commissural fibers were stimulated by stimulus electrodes, and the postsynaptic potential (fEPSP; field excitatory postsynaptic potential) in the CA1 region induced thereby was measured. After measurement, just the hippocampus CA1 region was sliced from the slice segment, and frozen for preservation at −80° C. for measurement with immunoblotting.

The next assay has as its system CaMKII. The assay is described as follows: CaMKII self-phosphorylation (activation) in hippocampus CA1 region, immunoblot. It counts as cell-based, mouse. The conditions noted are these: hippocampus CA1 region 60 minutes after LTP, 100 pM. The procedure: as §1, with “After measurement, just the hippocampus CA1 region was sliced from the slice segment, and frozen for preservation at −80° C. for measurement with immunoblotting.” left out
The above frozen mouse brain slice segment (hippocampus CA1 region) is used for homogenization on ice by adding 150 μL homogenizing buffer (50 mM Tris-HCl pH 7.5, 0.5% Triton X-100, 4 mM EGTA, 0.5 M NaCl, 10 mM EDTA, 1 mM Na3VO4, 30 mM sodium pyrophosphate, 50 mM NaF, 1 mM DTT, 100 nM calyculin A, 50 μg/mL leupeptin, 25 μg/mL pepstatin A, 50 μg/mL trypsin inhibitor) per sample. […] The protein concentration was measured by the Bradford method using a part of the supernatant. […]

In assay [2] the test system is non-transfected mouse neuroblastoma cell line Neuro2A. As to the kind of experiment: Calcium imaging (Fura-2) in T-type calcium channel non-expressing Neuro2A cells. It is filed as cell-based. The conditions noted are these: SAK3 100 pM. As for the experimental part:
The cells of mouse neuroblastoma cell line Neuro2A were purchased from the Human Science Research Resources Bank (#IFO50081, Osaka, Japan). […] Then, the Neuro2A cells were seeded to a glass bottom dish at a concentration of 1 to 2×10^6 cell/φ35-mm dish, and cultivated for 24 hours in a standard culture medium, and the cells were transfected using Lipofectamine 2000 (Invitrogen, Carsbad, Calif., USA) and using a plasmid vector containing a T-type calcium channel (Cav 3.1) genes (serum-free culture of Lipofectamine 2000: DNA=1 μl: 1 μg, 1.5 ml). The T-type calcium channel (Cav 3.1) gene, the plasmid vector pCMV-SPORT6, and the Lipofectamine 2000 were respectively purchased from OriGene Technologies, Inc., Thermo Fisher Scientific Ltd., and Invitrogen, and the transfection was performed according to the protocol attached to Lipofectamine 2000 other than the rate adjustment of the Lipofectamine 2000 and plasmid vector. The serum-free culture was replaced with a standard culture 6 hours after transfect, and calcium imaging (calcium concentration measurement) was performed after Cav 3.1 expression was confirmed after 48 hours of culture. T-type calcium channel expressing Neuor2A cells were dispersed in a glass bottom dish, and 2.5 μM of Fura-2-AM (Sigma, St Louis, Mo., USA) was added to the dish in perfusion (Krebs-Hepes buffer; KRH), then the dish was incubated at 37° C. for 30 minutes. A Fura-2-AM-free KRH was replaced with perfusion, and the Neuro2A cells were stimulized with SAK3 (100 pM) as the intracellular calcium was measured with a fluorescent microscope, then the cells were further stimulized with nicotin (1 μM), ATP (0.1 μM), DHPG (20 μM), as necessary.

Assay [3] relates to olfactolectomy mouse (OBX mouse). As to the kind of experiment: Acetylcholine liberation in hippocampus by microdialysis. It counts as in vivo. The procedure: The amount of acetylcholine liberated in hippocampus is measured by the microdialysis method. The set up of guide cannula and dialysis probe (AG-4; Eicom, Kyoto, Japan) was conducted by fixing the mouse to the brain stereotaxis apparatus under the condition of maintaining anesthesia by 1.5% halothane (Takeda Chemical Industries Ltd., Osaka, Japan), setting up a guide cannula to the left hippocampus (AP=+3. L=+3, V=-1.8), and inserting a dialysis probe to the guide cannula. The collection of a intracerebral Ach sample from a mouse hippocampus was performed a day after the probe set up operation. After the recovery of the mouse from the operation was confirmed, the probe was connected to a micropump (ESP-64; Eicom) under an unanesthetized state and free activity, and a Ringer's solution (1.3 mM CaCl2. 3 mM KCl, 146 mM NaCl and 1 mM MgSO4) was introduced at a flow rate of 2 μL per minute. The dialysis sample was collected every 19.5 minutes and inserted to the acetylcholine separation column using an autoinjector (EAS-20, Eicom), and a system for a trace element analysis of biological samples (HTEC-500; Eicom) was used for analysis. SAK3 was intraperitoneally administered at 40 minutes before test (at the -40 minutes point in the graph of FIG. 8). […]

As for `CCOC(=O)C1=C(N2CCCCC2)C2(CC1=O)C(=O)N=C1C(C)=CC=CN12` (stereo not drawn) [SAK3], the LTP potentiation effect result in assay [1] is given as “a strong potentiation effect was observed”. For the same molecule, the “phosphorylated CaMKII / CaMKII activation” value with CaMKII is “an increase of phosphorylated CaMKII and a potentiation of CaMKII activation were confirmed”. For the same molecule, the “change in calcium concentration after SAK3 addition” value in assay [2] (Cav3.1 non-expressing cell) is “there was no change in the calcium concentration”. Also, the “amount of intracellular influent calcium ion induced by SAK3” value in assay [2] (Cav3.1 non-transfected cells) is “do not show the change in the amount of influent calcium ion”. The “amount of acetylcholine liberated by nicotine in hippocampus” value in assay [3] (1.0 mg/kg administration group, compared with Sham group) is recorded as “above that of the Sham group”; in assay [3] (intraperitoneal, 40 minutes before test, versus group without SAK3), “increased”.

Source of the values: patent US9173878B2, “Brain function improving agent” (Tohoku University, priority 2012, dated 2015).
